In publication PMC8988824, “Subcutaneous in situ gel delivered leuprolide acetate's consistent and prolonged drug delivery maintains effective testosterone suppression independent of age and weight in men with prostate cancer” (BJUI Compass, 2020):

Assay: clinical
Conditions: male, human, in vivo, sc, 7.5 mg
Method: An 8‐week, open‐label, single‐arm study was performed with the objective of evaluating safety, tolerability, and PK following a single dose of 7.5 mg Gel‐LA in surgically castrated men with advanced PCa. Testosterone levels were not evaluated for this study population.
Men aged 45‐85 years with histologically or cytologically proven adenocarcinoma of the prostate who had undergone bilateral orchiectomy at least 2 months prior to study start were eligible. […]
All patients received a single dose of 7.5 mg LA suspended in the ATRIGEL Delivery System (34% w/w Poly [DL‐lactide‐co‐glycolide] and 66% w/w N‐methyl‐2‐pyrrolidone) as a subcutaneous injection into the upper right or upper left quadrant of the abdomen. […] LA concentrations were determined with solid‐phase extraction and high‐performance liquid chromatography followed by radioimmunoassay. […]
Serum concentrations of LA were summarized as mean, standard deviation (SD), % relative SD, median, minimum, and maximum levels. PK parameters included the maximum observed LA concentration (Cmax), time of maximum serum concentration (Tmax), time of last measured LA concentration in serum (tldc), and area under the LA serum concentration vs time curve (AUC). AUC was determined by linear trapezoidal interpolation, and actual times of blood draws were used for the PK analyses. […]

- AUC(0-t): 999 ng·h/mL
Structure (SMILES): CCNC(=O)[C@@H]1CCCN1C(=O)[C@H](CCCNC(=N)N)NC(=O)[C@H](CC(C)C)NC(=O)[C@@H](CC(C)C)NC(=O)[C@H](Cc1ccc(O)cc1)NC(=O)[C@H](CO)NC(=O)[C@H](Cc1c[nH]c2ccccc12)NC(=O)[C@H](Cc1c[nH]cn1)NC(=O)[C@@H]1CCC(=O)N1 [Leuprolide Acetate, Leuprolide acetate]
